Holding throughout (format): cell-based, human
One experiment relates to non-NF-1 STS26T cells. In words: actin stress fibers, rhodamine-phalloidin confocal microscopy. The note with it: 75 μM FTS, mean±SD, n=3, P<0.05. How it is done: (§1) The human NF-1 MPNST cell lines ST88-14, T265P21 and 90-8 and the non-NF-1 human MPNST cell line STS26T were obtained from Dr. Nancy Ratner. T265P21, 90-8, and ST88-14 cells were maintained in RPMI/15% fetal calf serum (FCS) medium and STS26T cells were maintained in DMEM/10% FCS, as described in Weisz, B., et al., supra. Cells were plated at a density of 1×10^6 cells per 10-cm plate for biochemical and immunoblotting assays, 2.5×10^3 cells/well in 24-well plates for cell-growth assays, or on glass cover slips (5×10^4 cells per 35-mm dish) for labeling of actin cytoskeletal elements. […]
(§2) Unless otherwise indicated, cells were lysed 48 hours after being treated with lysis buffer, as described in Haklai, et al., supra. […] Protein bands were visualized by ECL and quantified by densitometry with Image Master VDS-CL (Amersham) using TINA 2.0 software (Ray Tests). To obtain reliable comparisons between replicated experiments for statistical analysis, a standardization procedure was used, in which the density of each given protein band as recorded with its specific Ab, was normalized. […] The standard average density was defined as 1.0, and each of the individually determined bands was related to this value. […]

In experiment [1] the test system is NF-1 cell lines T265P21, ST88-14, and 90-8. The experiment is described as above. As to conditions: T265P21, ST88-14, and 90-8, 75 μM FTS; controls 82%-87%. How it is done:
as §1, §2

The next experiment relates to phospho-Akt. In words: serum-stimulated phospho-Akt, kinetic study. As to the method: Unless otherwise indicated, cells were lysed 48 hours after being treated with lysis buffer, as described in Haklai, et al., supra. […] Protein bands were visualized by ECL and quantified by densitometry with Image Master VDS-CL (Amersham) using TINA 2.0 software (Ray Tests). To obtain reliable comparisons between replicated experiments for statistical analysis, a standardization procedure was used, in which the density of each given protein band as recorded with its specific Ab, was normalized. […] The standard average density was defined as 1.0, and each of the individually determined bands was related to this value. […] Actin cytoskeletal elements were labeled with rhodamine-phalloidin, and digital fluorescence images were collected on a Zeiss LSM 510 confocal microscope fitted with fluorescein and rhodamine filters, as described in Gana-Weisz, M., et al., supra.
First, the time courses of serum-stimulated GTP loading of Ras and serum-stimulated activation of signals downstream of Ras were determined. […]

With `CC(C)=CCC/C(C)=C/CC/C(C)=C/CSc1ccccc1C(=O)O` [FTS, S-farnesylthiosalicylic acid], the “increase in stress-fiber formation” value with non-NF-1 STS26T cells was 27%±11.9%. For the same compound, the “cells with stress fibers after FTS, relative to total cell number” value in experiment [1] is listed as 11%-20%. The “serum-stimulated increase in phospho-Akt” value with phospho-Akt (STS26T cells, serum-starved 24 hours, stimulated with 10% serum) is “inhibited”; with phospho-Akt (all NF-1 cell lines (T265P21, ST88-14, 90-8)) it was “reduced”.

Values taken from patent publication US20110046223A1, “TREATMENT OF NEUROFIBROMATOSIS” (RAMOT AT TEL-AVIV UNIVERSITY LTD., priority 2006, published 2011).
